Data from patent EP0885006B1, “PHARMACEUTICAL COMPOSITION ENABLING TO INHIBIT CANCER METASTASIS FORMATION CONTAINING N-ACETYL-CYSTEINE AND DOXORUBICIN” (ZAMBON GROUP S.p.A., priority 1996, dated 1997).

Test system: B16-F10 murine melanoma cells
Experiment: Experimental metastasis assay (lung metastases after i.v. injection of cancer cells)
Format: in vivo, female nude (CD-1)BR mice
Settings: for reduction in the number of lung metastases with respect to untreated controls: DOX 5 mg/kg i.p. +24 h, NAC 2 g/kg p.o. daily
Description: DOX was used in the form of commercial injectable product, containing 10 mg of drug per vial (Adriblastina®, Farmitalia - Carlo Erba, Milano, Italia), to be dissolved in distilled water when injected. In the experiments wherein the oral administration was provided, NAC was used in the form of commercial product containing 200 mg of NAC per dosage (Fluimucil®, Zambon Italia, Vicenza), directly dissolved in the drinking water of mice. In the experiments wherein the parenteral (i.p. or i.v.) administration of NAC was foreseen, a 98% pure laboratory reagent (Sigma Chemical Co., St. Louis, MO, U.S.A.) was used, dissolved in a phosphate buffer (PBS), pH 7.4, and furtherly brought to neutrality with NaOH 0.1 N ("spontaneous" metastasis assays) or in NaCl 0.15 M, taking the solution to pH 7.0 (experimental metastasis assays).
A total of 385 adult mice was used (Charles River, Calco, Como, Italia) of which 196 female nude (CD-1)BR mice, aged 7 weeks, average weight of 25 g and 189 female C57BL/6 mice aged 6-8 weeks, average weight of 20 g, used in the experimental metastasis assays and in those of "spontaneous" metastases respectively. The (CD-1)BR mice were housed in sterile cages with filtering cover, in a number of 3 animals per cage, at a room temperature of 26-28°C, with a relative humidity of 55%, a ventilation accounting for 12-15 air/h renewals and a 12 hours day/night cycle; the C57BL/6 mice were stabulated in a number of 5 animals per cage, at a temperature of 25-27°C, with a relative humidity of 50% and a 12 hours day/night cycle. The (CD-1)BR mice received a special diet sterilized under vacuum (Mucedola S.r.L, Settimo Milanese, Milano, Italia) and sterilized drinking water; the C57BL/6 mice received a standard rodent diet (MIL Topi e Ratti, Morini, S. Polo d'Enza, Reggio Emilia, Italia) and drinking water ad libitum throughout the duration of the experiments. Within the experiments wherein the sacrifice of mice was foreseen at a scheduled time, killing was carried out by means of ethyl ether anaesthesia and subsequent cervical dislocation. The stabulation and all the animal treatments were carried out in accordance with the national and Community guidelines (D.L. 27.01.1992 N. 116; 86/609/EEC Directive).
In this kind of assay cancer cells were injected in the lateral tail vein, in order to avoid the formation of primary tumors and directly provide the spread of metastases in the lungs. B16-F10 murine melanoma cells were used, resuspended in serum-free Eagle's MEM medium, and injected i.v. in a volume of 100 µl (5 x 10^4 cells/mouse). As reported in Table 1, wherein also the number of mice included in each experimental group is indicated, 4 groups were always involved in each experiment, namely a control group (either untreated mice or treated with NaCl 0.15M), a group of mice treated with DOX only, a group of mice treated with NAC only and a group of mice treated with the two combined drugs.
In particular, in experiment #1 DOX was injected in a single dose (5 mg/kg body weight) by i.p. route 24 hours after injection of cancer cells, whereas NAC was administered every day with drinking water, at a calculated dose of 2 g/kg body weight, starting 3 days before injection of cancer cells and continuing throughout the duration of the experiment.
In experiment #2 DOX was injected in a single dose (10 mg/kg body weight) by i.v. route 3 days after injection of cancer cells, whereas NAC was administered daily by i.p. route (1 g/kg body weight), starting 8 hours before injection of cancer cells and continuing for 8 days.
In experiment #3 both DOX and NAC were injected by i.v. route 24 hours after injection of cancer cells, […]; in the combined treatment therefore the two drugs were injected after being mixed into the same syringe.
In experiment #4, wherein the control and DOX groups were the same as experiment #3, NAC was injected by i.v. route together with cancer cells, dissolved in the culture medium at a concentration of 10 mM. […]

[1] = experiment #1, DOX 5 mg/kg i.p. +24h, NAC 2 g/kg p.o. -3/+25 days, DOX+NAC same doses, killed at 25 days
[2] = experiment #1, combined same doses
[3] = experiment #2, DOX 10 mg/kg i.v. +3 days, NAC 1 g/kg i.p. -8 h/+8 days, DOX+NAC same doses, killed at 29 days
[4] = experiment #2, DOX 10 mg/kg i.v. +3 days, NAC 1 g/kg i.p. daily -8 h/+8 days, combined same doses
[5] = experiment #2, NAC 1 g/kg i.p. daily -8 h/+8 days
[6] = experiment #3, DOX 1 mg/kg i.v. +24 h, NAC 6.4 mg/kg i.v. +24 h, combined in the same injection
[7] = experiment #3, DOX 1 mg/kg i.v. +24 h, NAC 6,4 mg/kg i.v. +24 h, DOX+NAC mixed in the same syringe, killed at 27 days
[8] = experiment #4, DOX 1 mg/kg i.v. +24 h, NAC 10 mM in cancer cells culture medium, combined same doses
[9] = experiment #4, DOX 1 mg/kg i.v. +24 h, NAC 10 mM in culture medium of the injected cancer cells, DOX+NAC same doses, killed at 27 days

Row | SMILES | Lung metastases No. (mean ± ES) [1] | Mice with metastases (No.) 0 [1] | Mice with metastases (No.) 1-10 [1] | Mice with metastases (No.) 11-50 [1] | Mice with metastases (No.) ≥51 [1] | reduction in the number of lung metastases with respect to untreated controls [2] | Lung metastases No. (mean ± ES) [3] | Mice with metastases (No.) 0 [3] | Mice with metastases (No.) 1-10 [3] | Mice with metastases (No.) 11-50 [3] | Mice with metastases (No.) ≥51 [3] | reduction in the number of lung metastases with respect to controls [4] | reduction in the number of lung metastases with respect to controls [6] | Lung metastases No. (mean ± ES) [7] | Mice with metastases (No.) 0 [7] | Mice with metastases (No.) 1-10 [7] | Mice with metastases (No.) 11-50 [7] | Mice with metastases (No.) ≥51 [7] | reduction in the number of lung metastases with respect to controls [8] | Lung metastases No. (mean ± ES) [9] | other results
1 | CC(=O)N[C@@H](CS)C(=O)O [NAC, N-acetyl-cysteine] | 42.1 ± 15.8 No. | 0 No. | 3 No. | 7 No. | 2 No. | 1.3 fold | 25.1 ± 10.2 No. | 5 No. | 4 No. | 3 No. | 3 No. | 0.5 fold | 2.8 fold | 13.1 ± 8.9 No. | 5 No. | 2 No. | 3 No. | 1 No. | 14.7 fold | 2.5 ± 0.7 No. | frequency of animals with metastases (effect in words) [5]: did not affect; multiplicity of lung metastases (effect in words) [5]: even increased their multiplicity, but not to a significant extent; Mice with metastases (No.) 0 [9]: 4 No.; Mice with metastases (No.) 1-10 [9]: 7 No.; Mice with metastases (No.) 11-50 [9]: 0 No.; Mice with metastases (No.) ≥51 [9]: 0 No.
2 | COc1cccc2c1C(=O)c1c(O)c3c(c(O)c1C2=O)C[C@@](O)(C(=O)CO)C[C@@H]3O[C@H]1C[C@H](N)[C@H](O)[C@H](C)O1 [DOX, Doxorubicin] | 13.1 ± 11.6 No. | 2 No. | 4 No. | 5 No. | 0 No. | 4.1 fold | 0.7 ± 0.3 No. | 10 No. | 5 No. | 0 No. | 0 No. | 17.4 fold | 1.3 fold | 29.2 ± 13.7 No. | 3 No. | 5 No. | 0 No. | 3 No. | 1.3 fold | 29.2 ± 13.7 No. | frequency of mice affected by metastases (experiment #2, DOX 10 mg/kg i.v. +3 days, NAC 1 g/kg i.p. daily, controls 66.7%): 33.3%; Mice with metastases (No.) 0 [9]: 3 No.; Mice with metastases (No.) 1-10 [9]: 5 No.; Mice with metastases (No.) 11-50 [9]: 0 No.; Mice with metastases (No.) ≥51 [9]: 3 No.; modulating the induction of lung metastases (effect in words) (experiments #3 and #4, DOX 1 mg/kg i.v. +24 h): almost ineffective at all
